Our source for the AC50 values is ChEMBL document CHEMBL5291721, “A preclinical secondary pharmacology resource illuminates target-adverse drug reaction associations of marketed drugs” (Nat Commun, 2023).

The target in one experiment is Histamine H2 receptor (Homo sapiens, UniProt P25021). The class given is functional, cell-based.
In experiment [1] the target is T1, Muscarinic acetylcholine receptor M1 (Homo sapiens, UniProt P11229).
T1 sequence (P11229 whole entry): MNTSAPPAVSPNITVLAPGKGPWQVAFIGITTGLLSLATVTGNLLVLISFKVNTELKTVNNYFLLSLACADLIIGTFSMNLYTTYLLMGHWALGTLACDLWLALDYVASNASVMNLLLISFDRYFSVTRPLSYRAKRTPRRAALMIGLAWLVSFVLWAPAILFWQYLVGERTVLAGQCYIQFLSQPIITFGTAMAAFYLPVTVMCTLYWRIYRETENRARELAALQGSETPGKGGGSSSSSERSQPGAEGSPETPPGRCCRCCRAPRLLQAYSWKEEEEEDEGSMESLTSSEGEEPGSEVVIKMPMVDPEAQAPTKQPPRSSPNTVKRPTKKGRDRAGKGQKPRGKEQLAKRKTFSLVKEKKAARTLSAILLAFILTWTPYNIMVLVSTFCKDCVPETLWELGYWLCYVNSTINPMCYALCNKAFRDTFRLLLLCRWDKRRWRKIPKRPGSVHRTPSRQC
The class given is functional.

In a further experiment the target is T2, Glucocorticoid receptor (Homo sapiens, UniProt P04150).
T2 sequence (P04150 whole entry): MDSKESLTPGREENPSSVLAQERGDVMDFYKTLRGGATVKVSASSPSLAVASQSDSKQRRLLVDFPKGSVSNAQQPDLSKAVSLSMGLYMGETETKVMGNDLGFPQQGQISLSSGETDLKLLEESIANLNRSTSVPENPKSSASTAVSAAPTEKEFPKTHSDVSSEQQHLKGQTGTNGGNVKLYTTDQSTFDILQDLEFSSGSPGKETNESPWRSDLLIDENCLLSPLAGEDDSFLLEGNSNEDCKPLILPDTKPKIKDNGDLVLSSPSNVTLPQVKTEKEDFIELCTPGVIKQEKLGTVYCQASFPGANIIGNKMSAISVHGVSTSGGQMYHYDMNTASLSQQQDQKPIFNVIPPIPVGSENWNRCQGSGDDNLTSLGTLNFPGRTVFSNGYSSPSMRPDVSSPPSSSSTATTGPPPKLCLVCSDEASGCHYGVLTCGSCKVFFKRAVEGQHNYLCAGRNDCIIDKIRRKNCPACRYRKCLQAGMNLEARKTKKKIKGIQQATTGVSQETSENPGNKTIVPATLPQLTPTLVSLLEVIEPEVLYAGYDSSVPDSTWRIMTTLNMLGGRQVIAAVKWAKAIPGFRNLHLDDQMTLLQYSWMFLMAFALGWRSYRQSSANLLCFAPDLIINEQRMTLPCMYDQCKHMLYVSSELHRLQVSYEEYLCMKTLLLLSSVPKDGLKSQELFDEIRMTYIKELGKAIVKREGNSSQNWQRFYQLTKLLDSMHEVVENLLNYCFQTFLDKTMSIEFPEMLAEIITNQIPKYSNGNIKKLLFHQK

Another experiment has as its target T3, Progesterone receptor (Homo sapiens, UniProt P06401).
T3 sequence (P06401 whole entry): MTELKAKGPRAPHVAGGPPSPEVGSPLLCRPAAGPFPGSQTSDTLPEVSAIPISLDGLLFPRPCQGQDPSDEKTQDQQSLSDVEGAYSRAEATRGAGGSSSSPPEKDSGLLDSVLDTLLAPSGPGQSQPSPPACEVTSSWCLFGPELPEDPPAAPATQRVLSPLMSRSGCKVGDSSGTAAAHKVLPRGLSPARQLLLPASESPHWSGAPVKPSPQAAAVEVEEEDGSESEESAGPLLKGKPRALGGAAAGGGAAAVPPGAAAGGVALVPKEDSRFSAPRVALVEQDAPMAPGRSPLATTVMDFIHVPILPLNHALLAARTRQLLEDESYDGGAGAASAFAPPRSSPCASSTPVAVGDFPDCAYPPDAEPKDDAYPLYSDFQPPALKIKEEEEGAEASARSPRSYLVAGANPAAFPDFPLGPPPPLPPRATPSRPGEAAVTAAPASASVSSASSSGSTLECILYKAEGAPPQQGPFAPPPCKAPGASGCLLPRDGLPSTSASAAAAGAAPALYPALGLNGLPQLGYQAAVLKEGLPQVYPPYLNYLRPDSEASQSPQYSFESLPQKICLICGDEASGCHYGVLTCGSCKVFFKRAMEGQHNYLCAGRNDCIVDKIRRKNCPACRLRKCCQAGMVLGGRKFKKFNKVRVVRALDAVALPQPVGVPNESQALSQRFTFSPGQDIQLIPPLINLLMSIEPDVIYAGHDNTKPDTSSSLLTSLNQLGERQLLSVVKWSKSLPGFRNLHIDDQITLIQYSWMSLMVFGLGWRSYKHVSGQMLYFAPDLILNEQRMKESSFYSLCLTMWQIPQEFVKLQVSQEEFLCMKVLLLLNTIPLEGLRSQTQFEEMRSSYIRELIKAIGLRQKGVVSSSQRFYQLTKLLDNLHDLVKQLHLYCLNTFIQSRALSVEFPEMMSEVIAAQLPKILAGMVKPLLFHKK
It is filed as functional.

For experiment [2], the target named is Glutamate receptor ionotropic, NMDA 1 (Rattus norvegicus, UniProt P35439).
In experiment [3] the target is T4, 5-hydroxytryptamine receptor 1A (Homo sapiens, UniProt P08908).
T4 sequence (P08908 whole entry): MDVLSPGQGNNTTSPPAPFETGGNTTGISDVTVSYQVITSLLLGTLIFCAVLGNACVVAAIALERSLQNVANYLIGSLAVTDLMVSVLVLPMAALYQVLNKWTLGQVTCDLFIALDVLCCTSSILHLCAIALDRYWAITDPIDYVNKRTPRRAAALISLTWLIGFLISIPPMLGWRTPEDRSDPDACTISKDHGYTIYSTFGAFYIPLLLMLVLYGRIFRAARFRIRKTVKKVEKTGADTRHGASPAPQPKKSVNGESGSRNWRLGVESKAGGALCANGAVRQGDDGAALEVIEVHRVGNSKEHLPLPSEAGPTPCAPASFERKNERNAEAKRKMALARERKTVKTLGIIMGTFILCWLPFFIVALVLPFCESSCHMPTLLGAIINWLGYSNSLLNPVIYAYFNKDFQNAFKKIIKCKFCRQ
The class given is functional, cell-based.
Also: assay procedure not described here.

Histamine H2 receptor, sequence (P25021 whole entry): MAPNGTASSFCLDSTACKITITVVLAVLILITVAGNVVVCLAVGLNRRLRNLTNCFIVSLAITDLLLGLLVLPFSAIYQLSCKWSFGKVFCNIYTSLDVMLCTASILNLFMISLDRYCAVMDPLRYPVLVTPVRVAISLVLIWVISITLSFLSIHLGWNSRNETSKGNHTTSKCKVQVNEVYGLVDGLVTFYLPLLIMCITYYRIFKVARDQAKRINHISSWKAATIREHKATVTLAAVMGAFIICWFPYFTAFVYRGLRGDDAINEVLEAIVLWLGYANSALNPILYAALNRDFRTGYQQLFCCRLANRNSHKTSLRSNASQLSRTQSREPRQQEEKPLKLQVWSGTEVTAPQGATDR

Take `COc1ccc(C(=O)NCc2ccc(OCCN(C)C)cc2)cc1OC` [ITOPRIDE]: the concentration at half-maximal activity (AC50) (at Histamine H2 receptor; in experiment [1]; at Glucocorticoid receptor; at Progesterone receptor; in experiment [2]; in experiment [3]) was over 30 µM throughout.

As to `O=C(O)Cc1cn(-c2ccccc2)nc1-c1ccc(Cl)cc1` [LONAZOLAC], the concentration at half-maximal activity (AC50) (at Histamine H2 receptor; in experiment [1]; on Glucocorticoid receptor; at Progesterone receptor; in experiment [2]; in experiment [3]) was over 30 µM throughout.

Take `CC1=CC(=O)c2ccccc2C1=O` [MENADIONE]: the half-maximal activity concentration (AC50) on Histamine H2 receptor was over 30 µM; in experiment [1], over 30 µM; at Glucocorticoid receptor it was over 30 µM; on Progesterone receptor, over 30 µM; in experiment [2], over 10 µM; in experiment [3], over 10 µM.

Consider `C[C@H]1C[C@@H]2[C@H]([C@@H](O)C[C@@]3(C)[C@H]2CC[C@]3(O)C(=O)COC(=O)CCC(=O)O)[C@@]2(C)C=CC(=O)C=C12` [METHYLPREDNISOLONE HEMISUCCINATE], for which the AC50 on Histamine H2 receptor is over 30 µM; in experiment [1], over 30 µM; at Glucocorticoid receptor, 0.67 µM; on Progesterone receptor, over 30 µM; in experiment [2] it was over 30 µM; in experiment [3] it was over 30 µM.

For the compound `CCCCC(C)(O)C/C=C/[C@H]1[C@H](O)CC(=O)[C@@H]1CCCCCCC(=O)OC` (some centres undefined) [MISOPROSTOL], the AC50 at Histamine H2 receptor was over 30 µM; in experiment [1] it was over 30 µM; on Glucocorticoid receptor, over 30 µM; at Progesterone receptor, 27 µM; in experiment [2], over 30 µM; in experiment [3] it was over 30 µM.

`O=C(OCCN1CCOCC1)c1cccnc1Nc1cccc(C(F)(F)F)c1` [MORNIFLUMATE]: the half-maximal activity concentration (AC50) (on Histamine H2 receptor; in experiment [1]; on Glucocorticoid receptor; on Progesterone receptor; in experiment [2]; in experiment [3]) was over 30 µM in each case.

For the compound `CCCCCCC(C)(C)c1cc(O)c2c(c1)OC(C)(C)C1CCC(=O)CC21` (centres undefined) [NABILONE], the half-maximal activity concentration (AC50) (on Histamine H2 receptor; in experiment [1]; at Glucocorticoid receptor; at Progesterone receptor; in experiment [2]; in experiment [3]) was over 30 µM each time.

Take `CCCCCCCCOc1ccccc1C(=O)Nc1ccc(C(=O)OCC[N+](C)(CC)CC)cc1` [OTILONIUM BROMIDE]: the AC50 is over 30 µM at Histamine H2 receptor; 1.3 µM in experiment [1]; 11 µM on Glucocorticoid receptor; 7 µM at Progesterone receptor; over 30 µM in experiment [2]; 11 µM in experiment [3].

Take `CN1CCCN=C1COC(=O)C(O)(c1ccccc1)C1CCCCC1` (centres undefined) [OXYPHENCYCLIMINE]: the AC50 at Histamine H2 receptor was over 10 µM; in experiment [1], 0.019 µM; at Glucocorticoid receptor, over 10 µM; on Progesterone receptor, over 10 µM; in experiment [2], over 10 µM; in experiment [3] it was over 10 µM.

With `CN1CCC2=C(C1)C(c1ccccc1)c1ccccc12` (centres undefined) [PHENINDAMINE], the concentration at half-maximal activity (AC50) is over 10 µM on Histamine H2 receptor; over 10 µM in experiment [1]; over 30 µM on Glucocorticoid receptor; over 30 µM on Progesterone receptor; over 10 µM in experiment [2]; over 10 µM in experiment [3].

Take `CN1C(=O)CC(c2ccccc2)C1=O` (centres undefined) [PHENSUXIMIDE]: the half-maximal activity concentration (AC50) (at Histamine H2 receptor; in experiment [1]; at Glucocorticoid receptor; on Progesterone receptor; in experiment [2]; in experiment [3]) was over 10 µM in each case.

In the case of `CC(=O)NS(=O)(=O)c1ccc(N)cc1` [SULFACETAMIDE], the AC50 (at Histamine H2 receptor; in experiment [1]; on Glucocorticoid receptor; at Progesterone receptor; in experiment [2]; in experiment [3]) was over 10 µM in each case.

Consider `Cc1c(Cl)cccc1Nc1ccccc1C(=O)O` [TOLFENAMIC ACID], for which the AC50 is over 30 µM at Histamine H2 receptor; over 30 µM in experiment [1]; over 30 µM on Glucocorticoid receptor; 26 µM on Progesterone receptor; over 30 µM in experiment [2]; over 30 µM in experiment [3].

Turning to TOCOFERSOLAN, the AC50 (at Histamine H2 receptor; in experiment [1]; at Glucocorticoid receptor; at Progesterone receptor; in experiment [2]; in experiment [3]) was over 30 µM each time.

The term AC50 denotes the midpoint of the concentration-response curve, whichever way the signal moves. High values mean weaker potency, low ones greater potency.
